Where two headings read alike, the source gives them in different places.
What was measured:
[1] = Preliminary bioequivalence study of DA1 vs. RP in eighty healthy subjects; assay type: in vivo, human; conditions: total study population
Experimental: First, a preliminary bioequivalence study assessed in-vivo absorption of DA1 and RP. This bioequivalence study and its results are summarized in Example 2, below, and data are shown in FIG. 3 to FIG. 6 for four exemplary subjects A to D in that study.
Example 3, together with corresponding Table 4, presents additional results from the clinical study of Example 2, comparing the bioavailability of DA1 vs RP.
A preliminary bioequivalence study in eighty (80) healthy subjects was conducted to test the in-vivo absorption of RP and DA1.
Additional data from the bioequivalence study of Example 2, which compared the bioequivalence of DA1 against the reference product (“RP”) are summarised in Table 4 below.

[2] = cited from earlier work
[3] = pH 2.6; cited from earlier work
[4] = Oral bioavailability and pharmacokinetics of dasatinib monohydrate (background); conditions: human, in vivo, read-out: subjects exhibiting atypical pharmacokinetic profiles (reduced bioavailability, likely achlorhydria or hypochlorhydria)
[5] = in vivo; cited from earlier work
[6] = administered 10 hours following the H2 antagonist famotidine
[7] = co-administration with aluminium hydroxide or magnesium hydroxide
[8] = single 100 mg dose 22 hours following a 4-day 40-mg omeprazole dose at steady state

SMILES | absorption across all subjects [1] | reduction of AUC [2, 6] [%] | reduction of Cmax [2, 6] [%] | reduction in Cmax [2, 7] [%] | reduction of the area under the curve (AUC) [2, 7] [%] | reduction of AUC [2, 8] [%] | reduction of Cmax [2, 8] [%] | thermodynamic (equilibrium) solubility [3] [mg/mL] | percentage of subjects with atypical pharmacokinetic profiles [4] [%] | time at which peak concentration is reached [5] [h]
Cc1nc(Nc2ncc(C(=O)Nc3c(C)cccc3Cl)s2)cc(N2CCN(CCO)CC2)n1 [Dasatinib anhydrous, N-(2-chloro-6-methylphenyl)-2-[[6-[4-(2-hydroxyethyl)-1-piperazinyl]-2-methyl-4-pyrimidinyl]amino]-5-thiazolecarboxamide] | absorbed in all subjects | – | – | – | – | – | – | – | – | –
Cc1nc(Nc2ncc(C(=O)Nc3c(C)cccc3Cl)s2)cc(N2CCN(CCO)CC2)n1 [dasatinib monohydrate, N-(2-chloro-6-methylphenyl)-2-[[6-[4-(2-hydroxyethyl)-1-piperazinyl]-2-methyl-4-pyrimidinyl]amino]-5-thiazolecarboxamide] | – | 61 | 63 | 58 | 55 | 43 | 42 | 18.4 | 3.5 to 7.5 | 1 to 2

Source: patent publication US20230092490A1, “PHARMACEUTICAL COMPOSITIONS COMPRISING DASATINIB ANHYDROUS AND USES THEREOF” (ZENTIVA K.S., priority 2020, published 2023)
